{
  "source": "patent US3987055A",
  "about": "“Azasteroids compounds and derivatives” (The Board of Regents for the Oklahoma Agricultural & …, priority 1974, dated 1976)",
  "key": {"L-M cells [1]": {"test_system": "L-M cells", "experiment": "growth inhibition of mouse L-M cell line", "type": "cell-based", "method": "Cells (1 × 10^5 /ml) were added to the \"incubated\" compound-containing medium."}, "KB cells [2]": {"test_system": "KB cells", "experiment": "growth inhibition of human tumor KB cell line", "type": "cell-based", "settings": "10 μg/ml or greater, read-out: concentration at which growth was inhibited", "method": "For example, growth of both the human tumor KB* and the mouse L-M** cell lines was inhibited when the cells were grown in media containing 10 μg/ml or greater"}, "KB cells [3]": {"test_system": "KB cells", "experiment": "relative plating efficiency of KB cells (colony formation, 7 days)", "type": "cell-based, human", "method": "The KB cells were plated in plastic tissue culture dishes and grown in a 5% CO2 gas phase incubator for 7 days. The medium was removed, the plates washed with Hanks' salt solution and the cells stained with a 0.5% aqueous crystal violet solution, rinsed and dried. The colonies were counted and the relative plating efficiency calculated using the number of control colonies as 100 percent."}, "KB cells [4]": {"test_system": "KB cells", "experiment": "colony and cell morphology of KB cells", "type": "cell-based, human", "settings": "10 and 20 μg/ml", "method": "Differences in cell morphology were also observed. […] Since the difference in staining density could be the result of modification of intracellular structures, such as lysosomes, experiments were performed to determine the effect of the compounds on the permeability of lysosomal membrane."}, "[5]": {"test_system": "acid phosphatase, KB and L-M cells", "experiment": "relative acid phosphatase staining (permeability of lysosomal membrane) of KB and L-M cells", "type": "cell-based, human (KB) and mouse (L-M)", "design": "key to Relative acid phosphatase staining: light: cells showing only a few scattered granules; medium: more dense but distinct isolated granules were still detected; heavy: a more intense staining with fewer discrete granules", "settings": "20 μg/ml", "method": "KB and L-M cells were grown on coverslips in medium 199 with 10% calf serum for the 24 hour growth prior to staining in the presence or absence of compound 5c (20 μg/ml) or compound 5d (20 μg/ml). The cells were washed in Hanks' salt solution, incubated at 37° C in Gomori's substrate solution for 1, 2, or 3 hours, washed, treated with a 1% solution of ammonium sulfide, washed, mounted and observed microscopically. Light staining was designated as cells showing only a few scattered granules; medium staining was more dense but distinct isolated granules were still detected; and heavy staining a more intense staining with fewer discrete granules. Heavy staining denotes increased phosphatase activity.\nThe acid phosphatase activity was measured in KB and L-M cells grown in medium in the presence or absence compound 5c or 5d (20 μg/ml) for 2 or 24 hours prior to staining (Table 2). Quantitative evaluation of the relative staining intensity of the lysosomes was compared in the treated and untreated cells. […] Thus, cells grown in the presence of compound 5c accumulate the phosphatase substrate within the lysosomes much more rapidly than the control or compound 5d treated cells indicating the compounds ability to alter membrane permeability and thus regulate the accumulation of essential metabolites. Control of this cellular capacity permits regulation of cell division so important in cancer chemotherapy. Since the permeation of the substrate is the rate-limiting step in the phosphatase determination, compound 5c produces a modification of the lysosomal membrane which increased the permeability of the lysosome to the substrate. The results also emphasize the difference in biological activity of compound 5c and 5d type molecules which chemically are similar except at C-3. Differences in the biological activity have been observed when the compounds were tested using various bacteria."}, "L-M cells [6]": {"test_system": "L-M cells", "experiment": "uptake and incorporation of 3H-thymidine, 3H-uridine and 14C-leucine by L-M cells", "type": "cell-based, mouse", "settings": "15 μg/ml", "method": "^3 H-Thymidine (10 μCi), or ^3 H-uridine (10 μCi), or ^14 C-leucine (5 .rho.Ci), was added to suspension cultures of L-M cells (8 × 10^5; /ml) in McCoy's 5a modified medium containing either 0 or 15 μg/ml of compound 5c. The cells were incubated at 37° C. One ml samples were removed at varying intervals and the rates of uptake and incorporation were determined from the liner portion of radioactivity versus time curves."}, "rat testis tubules [7]": {"test_system": "rat testis tubules", "experiment": "glucose oxidation (glucose-U-14C) by rat testis tubules in vitro", "type": "cell-based", "method": "(§1) For these investigations the compounds were diluted in a minimal amount of ethanol and further diluted in saline (0.85%) so that the final concentration was 1 mg/ml. The compounds were placed in solution and gassed under N2 and stored at 5° C until used 2 days later for the in vitro incubation studies. Details of the in vitro incubation procedures may be found in Endocrinology 89:791-800 (1971).\nThe effects of these compounds on glucose oxidation by testis tubules was examined by incubating about 200 mg of teased testis tubules from mature rats in a 25 ml Erlenmeyer flask containing 3 ml of Krebs Ringer bicarbonate buffer (pH 7.4), D-glucose-U-^14 C (0.5 μCi; 10mM) and 0.25 ml of the azasteroid (1 mg/ml) to be tested. The flasks were incubated for 2 hours at 33° C under 95% O2 :5% CO2. The reaction was terminated by adding 0.25 ml of 5 N H2 SO4. Carbon dioxide was trapped in 0.25 ml of hydroxide of Hyamine. The radioactivity present in the Hyamine was determined by liquid scintillation spectrometry. This table includes a detailed summary of the results obtained and an average for each compound. […] Thus, the compounds have potential for antifertility activity in the control of wild rodent populations and possibly stray animals such as dogs and cats.\nCPM = counts per minute. Glucose-U-^14 C activity was 0.5 millicurie.\nAll compounds were tested in a concentration of 250 mg per flask."}, "rat testis tubules [8]": {"test_system": "rat testis tubules", "experiment": "lysine-U-14C incorporation into protein by rat testis tubules in vitro", "type": "cell-based", "method": "as §1\nThe effects of the compounds on the incorporation of lysine -U-^14 C into trichloroacetic (TCA) precipitable protein of rat testes was investigated by incubating about 200 mg of teased testis tubules from mature rats in a 25 ml Erlenmeyer flask containing 3 ml of Krebs Ringer bicarbonate buffer (pH 7.4), L-lysine-U-^14 C (0.5 μCi; 0.1mM), glucose (10 mM) and 0.25 ml of the azasteroid to be tested. The flasks were incubated for 1 hour at 33° C under 95% O2 : 5% CO2 and the TCA precipitable protein was isolated and an aliquot used to measure radioactivity.\nCPM = counts per minute. All compounds were tested in a concentration of […]"}, "[9]": {"test_system": "acid phosphatase, KB and L-M cells", "experiment": "relative acid phosphatase staining (permeability of lysosomal membrane) of KB and L-M cells", "type": "cell-based, human (KB) and mouse (L-M)", "settings": "control experiment with Triton X-100"}, "[10]": {"settings": "individual flask, 250 mg per flask (so in the source), 2 hours, 33° C"}, "[11]": {"settings": "individual flask, 250 mg per flask (so in the source), 1 hour, 33° C"}},
  "note": "Several values for one entry are separate records, joined by “and”; a condition that tells them apart may be missing. Identical values can stand only once.",
  "data": [
    {"smiles": "CC12CCN=C1c1ccc3cc(O)ccc3c1CC2", "note": "(stereo not shown) [Compound 5c, 1,10,11,11a-tetrahydro-11a-methyl-2H-naphth[1,2-g]indol-7-ol]", "values": [
      {"measurement": "growth rate versus control", "setting": "L-M cells [1]; 1 μg/ml", "result": "same growth rate as the control"},
      {"measurement": "growth inhibition at 20 μg/ml", "setting": "L-M cells [1]; 20 μg/ml", "result": "marked inhibition"},
      {"measurement": "increase in cell numbers", "setting": "L-M cells [1]; 20 μg/ml, after three days", "result": "no significant increase in cell numbers"},
      {"measurement": "activity at 10 µg/mL", "setting": "L-M cells [1]; Mus musculus, 96 h, 10 μg/ml, fourth day, read-out: growth as % of the control", "result": 50, "unit": "%"},
      {"measurement": "minimal effective concentration", "setting": "L-M cells [1]; Mus musculus, L-M cells, 10 μg/ml or greater, read-out: concentration at which growth was inhibited", "result": "≥ 10", "unit": "µg/mL"},
      {"measurement": "minimal effective concentration", "setting": "KB cells [2]", "result": "≥ 10", "unit": "µg/mL"},
      {"measurement": "effect on the relative plating efficiency", "setting": "KB cells [3]; 1 μg/ml", "result": "little effect"},
      {"measurement": "activity at 1 µg/mL", "setting": "KB cells [3]; Homo sapiens, KB, 168 h, 1 μg/ml", "result": 91, "unit": "%"},
      {"measurement": "activity at 10 µg/mL", "setting": "KB cells [3]; Homo sapiens, KB, 168 h, 10 μg/ml", "result": 38, "unit": "%"},
      {"measurement": "cytotoxicity at 10 µg/mL", "setting": "KB cells [3]; Homo sapiens, KB, 168 h, 10 μg/ml, 7 days, read-out: cells killed", "result": 62, "unit": "%"},
      {"measurement": "activity at 20 µg/mL", "setting": "KB cells [3]; Homo sapiens, KB, 168 h, 20 μg/ml", "result": 17, "unit": "%"},
      {"measurement": "cytotoxicity at 20 µg/mL", "setting": "KB cells [3]; Homo sapiens, KB, 168 h, 20 μg/ml, 7 days, read-out: cells killed", "result": 83, "unit": "%"},
      {"measurement": "cell division", "setting": "KB cells [4]", "result": "did not divide, or if limited division occurred, only a few small colonies were formed containing a small number of cells"},
      {"measurement": "density of treated cells", "setting": "KB cells [4]", "result": "less uniform density with areas of heavy and light staining"},
      {"measurement": "position of nuclei in treated cells", "setting": "KB cells [4]", "result": "located at the periphery of the cell which contained little cytoplasm"},
      {"measurement": "Relative acid phosphatase staining", "setting": "[5]; 24 h, 1 hour in substrate", "result": "light"},
      {"measurement": "Relative acid phosphatase staining", "setting": "[5]; 24 h, 2 hours in substrate", "result": "medium"},
      {"measurement": "Relative acid phosphatase staining", "setting": "[5]; 24 h, 3 hours in substrate", "result": "heavy"},
      {"measurement": "staining reaction versus control", "setting": "[5]; 24 h, all three substrate incubation times", "result": "more intense staining reaction"},
      {"measurement": "staining intensity versus untreated cells", "setting": "[5]; cells treated for 2 hours", "result": "indistinguishable from untreated cells"},
      {"measurement": "uptake of radioactive thymidine, uridine, and leucine", "setting": "L-M cells [6]", "result": "inhibited"},
      {"measurement": "Cell Pool", "setting": "L-M cells [6]; 3H-thymidine", "result": 700, "unit": "Cpm/8×10^5 cells/hr"},
      {"measurement": "Rate of incorporation", "setting": "L-M cells [6]; 3H-thymidine", "result": "1,300 Cpm/8×10^5 cells/hr"},
      {"measurement": "Rate of uptake", "setting": "L-M cells [6]; 3H-thymidine", "result": "2,000 Cpm/8×10^5 cells/hr"},
      {"measurement": "Cell Pool", "setting": "L-M cells [6]; 3H-uridine", "result": "1,600 Cpm/8×10^5 cells/hr"},
      {"measurement": "Rate of incorporation", "setting": "L-M cells [6]; 3H-uridine", "result": "1,400 Cpm/8×10^5 cells/hr"},
      {"measurement": "Rate of uptake", "setting": "L-M cells [6]; 3H-uridine", "result": "3,000 Cpm/8×10^5 cells/hr"},
      {"measurement": "Cell Pool", "setting": "L-M cells [6]; 14C-leucine", "result": "1,200 Cpm/8×10^5 cells/hr"},
      {"measurement": "Rate of incorporation", "setting": "L-M cells [6]; 14C-leucine", "result": "2,800 Cpm/8×10^5 cells/hr"},
      {"measurement": "Rate of uptake", "setting": "L-M cells [6]; 14C-leucine", "result": "4,000 Cpm/8×10^5 cells/hr"},
      {"measurement": "inhibition at 15 µg/mL", "setting": "L-M cells [6]; Mus musculus, read-out: reduction of radioactivity present in the pool for each of the precursors", "result": "~66", "unit": "%"},
      {"measurement": "AVERAGE glucose oxidation", "setting": "rat testis tubules [7]; average of flasks", "result": "8,181 CPM/100 mg TISSUE"},
      {"measurement": "depression of glucose oxidation in vitro", "setting": "rat testis tubules [7]; in words", "result": "depressed glucose oxidation in vitro more than compounds 4 c and 11b"},
      {"measurement": "GLUCOSE OXIDATION per 100 mg", "setting": "rat testis tubules [7]; [10]", "result": "6,046 CPM/100 mg and 10,317 CPM/100 mg"},
      {"measurement": "GLUCOSE OXIDATION per flask", "setting": "rat testis tubules [7]; [10]", "result": "12,450 CPM/FLASK and 21,027 CPM/FLASK"},
      {"measurement": "% DEVIATION FROM CONTROL, glucose oxidation", "setting": "rat testis tubules [7]; versus saline, 120 min", "result": "+20.8%"},
      {"measurement": "AVERAGE OF TWO FLASK lysine incorporation", "setting": "rat testis tubules [8]; average of two flasks", "result": "1,944 CPM/100 mg tissue"},
      {"measurement": "lysine incorporation into protein per 100 mg", "setting": "rat testis tubules [8]; [11]", "result": "1,616 CPM/100 mg and 2,273 CPM/100 mg"},
      {"measurement": "lysine incorporation into protein per flask", "setting": "rat testis tubules [8]; [11]", "result": "3,325 CPM/FLASK and 4,575 CPM/FLASK"},
      {"measurement": "induction of synthesis of acid phosphatase", "setting": "[9]", "result": "does not induce synthesis of acid phosphatase in the cell"}
    ]}
  ]
}
